Measurements from US20130252951A1, “7-HYDROXY-PYRAZOLO[1,5-A] PYRIMIDINE COMPOUNDS AND THEIR USE AS CCR2 RECEPTOR ANTAGONISTS” (Proximagen Limited, priority 2010, published 2013).
Where two headings read alike, the source gives them in different places.

Biological target: human CCR2 (Homo sapiens, UniProt P41597)
Experiment: CCR2 functional calcium assay (FLIPR calcium flux, hMCP-1 challenge)
Assay type: cell-based
Parameters: expressed in transfected cells; host or cells: HEK293 EBNA cells
Description: The CCR2 receptor couples through the Gi/Gq signaling pathway and results in activation of calcium mobilization. The functional activity of test compounds was routinely tested by measuring the ability of compounds to antagonize CCR2 activity in a dose dependent manner, in HEK293 EBNA cells transfected with the human CCR2 receptor (hMCP-1 challenge), using a calcium flux Fluorescent Imaging Plate Reader FLIPR assay. Non-transfected HEK293 EBNA cells were used as control of non-specific response.
Briefly, test compounds were dissolved in dimethyl sulfoxide (DMSO) to a concentration of 10 mM and stored in matrix screenmate racks. The required amount of compound was transferred to 96-well compound plates on the day of assay and diluted in assay buffer to the required final concentration; dose-response measurements were assayed by making 1:3 serial dilutions to produce 10 point curves. The compounds were then transferred to 384-well assay plates ready for use. Top concentrations were adjusted depending on the potency of the compounds with a typical concentration range of 30 μM to 0.5 nM being used. The assay buffer used was HBSS buffer supplemented with 20 mM HEPES and 0.1% BSA, pH7.4. The loading/wash buffers were the same as the assay buffer.
Cells were suspended in culture medium at a density of 10000 cells/50 μl (the cell culture media composition was DMEM high glucose supplemented with 10% dialyzed FBS, 250 μg/ml Geneticin, and 400 μg/ml Hygromycin B), transferred to 384-well black/clear Costar plates (Costar #3712) (50 μl/well) and incubated at 37° C., in a 5% CO2/95% air humidified incubator for 16 h. The cells were washed with assay buffer at 37° C. using the Biotek ELx 405, washing 3 times, leaving 20 μl buffer in the well. 20 μl Fluo-4 (Fluo-4 stock solution (1 mM) was prepared by dissolving one vial of Fluo-4 (50 μg) in 45 μl of pluronic acid (240 mg/ml in DMSO). This stock solution of Fluo-4 was then diluted 250 times with loading buffer to give a Fluo-4 concentration of 4 μM. The dye solution (used within 2 h and kept away from light) was added to each well using a repeating multichannel pipette; the cells were then incubated at 37° C. for 60 min. Following the incubation, cells were washed in assay buffer at 37° C. using the Biotek ELx 405, washing 3 times, leaving 40 μl in each well and incubated for 10 min at 37° C. before use. A combined agonist/antagonist protocol was used. Compound (antagonist) was added to the cell plate using the FLIPR. Basal fluorescence was recorded every second for 10 seconds prior to compound addition (10 μl) and fluorescence recorded every second for 1 minute then every 6 seconds for a further 1 minute. Agonist (MCP-1) was then added using the FLIPR and fluorescence recorded as described above.
The positive control (agonist) was human recombinant MCP-1 which was stored as a stock concentration of 10 μM in distilled water and stored at −20° C. (maximal response: 30 nM; EC50 dose: 3-5 nM). The reference compound (antagonist) was RS102895 which was used as a 10 mM DMSO solution and stored at −20° C.
FLIPR responses were measured as peak minus basal fluorescence intensity and were expressed as a percentage of EC50 MCP-1 challenge. Curve-fitting and parameter estimation were carried out using GraphPad Prism 4.0 (GraphPad Software Inc., San Diego, Calif.).

[1] = HEK293 EBNA cells transfected with human CCR2, hMCP-1 challenge, read-out: Functional CCR2 fKi

Chain of human CCR2 (P41597 whole entry): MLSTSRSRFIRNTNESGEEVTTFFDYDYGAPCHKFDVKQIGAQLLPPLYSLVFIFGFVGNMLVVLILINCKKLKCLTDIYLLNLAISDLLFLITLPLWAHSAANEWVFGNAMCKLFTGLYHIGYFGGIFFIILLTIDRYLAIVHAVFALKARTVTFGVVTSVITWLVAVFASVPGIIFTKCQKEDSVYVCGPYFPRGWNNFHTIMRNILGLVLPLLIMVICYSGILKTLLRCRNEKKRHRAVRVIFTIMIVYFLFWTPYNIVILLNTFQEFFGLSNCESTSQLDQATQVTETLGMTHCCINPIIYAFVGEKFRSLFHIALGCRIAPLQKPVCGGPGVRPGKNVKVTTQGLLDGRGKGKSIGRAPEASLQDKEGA

| Ki [1] [nM] | SMILES | other results |
| --- | --- | --- |
| 10 to 100 | CCC(=O)c1nc2ccnn2c(O)c1Cc1ccc(Cl)c(Cl)c1 [Example 97, 1-{6-[(3,4-Dichlorophenyl)methyl]-7-hydroxypyrazolo[1,5-a]pyrimidin-5-yl}propan-1-one] | – |
| 100 to 1000 | COCCNC(=O)c1cnn2c(O)c(Cc3ccc(C)cc3)c(C)nc12 [Example 102, 7-Hydroxy-N-(2-methoxyethyl)-5-methyl-6-[(4-methylphenyl)methyl]pyrazolo[1,5-a]pyrimidine-3-carboxamide] | – |
| 10 to 100 | COCCNC(=O)c1cnn2c(O)c(Cc3ccc(Cl)c(Cl)c3)c(C)nc12 [Example 115, 6-[(3,4-Dichlorophenyl)methyl]-7-hydroxy-N-(2-methoxyethyl)-5-methylpyrazolo-[1,5-a] pyrimidine-3-carboxamide] | – |
| 100 to 1000 | Cc1nc2c(C(=O)NCCOc3ccccc3)cnn2c(O)c1Cc1ccccc1 [Example 103, 6-Benzyl-7-hydroxy-5-methyl-N-(2-phenoxyethyl)pyrazolo[1,5-a]pyrimidine-3-carboxamide] | – |
| 100 to 1000 | Cc1nc2ccnn2c(O)c1Nc1cccc(F)c1 [Example 78, 6-[(3-Fluorophenyl)amino]-5-methylpyrazolo[1,5-a]pyrimidin-7-ol] | – |
| 100 to 1000 | COCCCNC(=O)c1cnn2c(O)c(Cc3ccccc3)c(C)nc12 [Example 112, 6-Benzyl-7-hydroxy-N-(3-methoxypropyl)-5-methylpyrazolo[1,5-a] pyrimidine-3-carboxamide] | – |
| < 10 | COC(=O)c1nc2ccnn2c(O)c1Cc1ccc(Cl)c(Cl)c1 [Example 83, Methyl 6-[(3,4-dichlorophenyl)methyl]-7-hydroxypyrazolo[1,5-a]pyrimidine-5-carboxylate] | – |
| 100 to 1000 | COCCNC(=O)c1cnn2c(O)c(Cc3ccc(Cl)cc3)c(COC)nc12 [Example 118, 6-[(4-Chlorophenyl)methyl]-7-hydroxy-N-(2-methoxy-ethyl)5-(methoxymethyl)-pyrazolo[1,5-a]pyrimidine-3-carboxamide] | – |
| 100 to 1000 | OCc1nc2ccnn2c(O)c1Cc1ccc(Cl)cc1 [Example 90, 6-[(4-Chlorophenyl)methyl]-5-(hydroxymethyl)pyrazolo[1,5-a]pyrimidin-7-ol] | – |
| 100 to 1000 | Cc1nc2c(C(=O)N(C)CCC#N)cnn2c(O)c1Cc1ccc(Cl)cc1 [Example 109, 6-[(4-Chlorophenyl)methyl]-N-(2-cyanoethyl)-7-hydroxy-N,5-dimethylpyrazolo[1,5-a] pyrimidine-3-carboxamide] | – |
| 10 to 100 | COC(=O)c1nc2ccnn2c(O)c1Cc1cccc(F)c1 [Example 69, Methyl 6-[(3-fluorophenyl)methyl]-7-hydroxypyrazolo[1,5-a]pyrimidine-5-carboxylate] | – |
| 10 to 100 | COCCNC(=O)c1cnn2c(O)c(Cc3ccc(Cl)cc3)c(C)nc12 [Example 107, 6-[(4-Chlorophenyl)methyl]-7-hydroxy-N-(2-methoxyethyl)-5-methylpyrazolo[1,5-a]-pyrimidine-3-carboxamide] | – |
| 100 to 1000 | Cc1nc2c(C(=O)N3CCOCC3)cnn2c(O)c1Cc1ccc(C(F)(F)F)cc1 [Example 114] | – |
| 10 to 100 | CCc1nc2ccnn2c(O)c1Oc1ccc(F)c(Cl)c1 [Example 63, 6-(3-Chloro-4-fluorophenoxy)-5-ethyl-pyrazolo[1,5-a]pyrimidin-7-ol] | – |

The remaining lines, values behind:

| SMILES | Ki [1] [nM] | other results |
| --- | --- | --- |
| Oc1c(Cc2ccc(F)c(F)c2)c(C2CC2)nc2ccnn12 [Example 24, 5-Cyclopropyl-6-[(3,4-difluorophenyl)-methyl]pyrazolo[1,5-a]pyrimidin-7-ol] | < 10 | – |
| Oc1c(Cc2ccc(F)c(C(F)(F)F)c2)c(C2CCC2)nc2ccnn12 [Example 47, 5-Cyclobutyl-6-{[4-fluoro-3-(trifluoro-methyl)phenyl]methyl}pyrazolo[1,5-a]-pyrimidin-7-ol] | < 10 | – |
| CCCc1nc2ccnn2c(O)c1Cc1ccc(Cl)c(Cl)c1 [Example 17, 6-[(3,4-Dichlorophenyl)methyl]-5-propyl-pyrazolo[1,5-a]pyrimidin-7-ol] | < 10 | – |
| Oc1c(Cc2ccc(Cl)c(Cl)c2)c(C2CCCO2)nc2ccnn12 (stereo not shown) [Example 56, 6-[(3,4-Dichlorophenyl)methyl]-5-(oxolan-2-yl)pyrazolo[1,5-a]pyrimidin-7-ol] | < 10 | – |
| COCc1nc2ccnn2c(O)c1Cc1ccc(Cl)c(F)c1 [Example 52, 6-[(4-Choro-3-fluorophenyl)methyl]-5-(methoxymethyl)pyrazolo[1,5-a]pyrimidin-7-ol] | 10 to 100 | – |
| CC(C)c1nc2ccnn2c(O)c1Cc1ccc(Cl)c(Cl)c1 [Example 41, 6-[(3,4-Dichlorophenyl)methyl]-5-(propan-2-yl)pyrazolo[1,5-a]pyrimidin-7-ol] | < 10 | – |
| Oc1c(Cc2cc(F)cc(Cl)c2)c(C2CC2)nc2ccnn12 [Example 29, 6-[(3-Chloro-5-fluorophenyl)methyl]-5-cyclopropylpyrazolo[1,5-a]pyrimidin-7-ol] | < 10 | – |
| Oc1c(Cc2cc(F)cc(C(F)(F)F)c2)c(C2CCC2)nc2ccnn12 [Example 48, 5-Cyclobutyl-6-{[3-fluoro-5-(trifluoro-methyl)phenyl]methyl}pyrazolo[1,5-a]-pyrimidin-7-ol] | < 10 | – |
| CC(C)c1nc2ccnn2c(O)c1Cc1cc(F)c(F)c(F)c1 [Example 36, 5-(Propan-2-yl)-6-[(3,4,5-trifluorophenyl)-methyl]pyrazolo[1,5-a]pyrimidin-7-ol] | < 10 | – |
| CC(C)c1nc2ccnn2c(O)c1Cc1cc(Cl)cc(Cl)c1 [Example 42, 6-[(3,5-Dichlorophenyl)methyl]-5-(propan-2-yl)pyrazolo[1,5-a]pyrimidin-7-ol] | < 10 | – |
| Oc1c(Cc2ccc(Cl)c(Cl)c2)c(C2CC2)nc2ccnn12 [Example 30, 5-Cyclopropyl-6-[(3,4-dichlorophenyl)-methyl]pyrazolo[1,5-a]pyrimidin-7-ol] | < 10 | – |
| O=C1Nc2ccccc2C2(CCN(CCc3ccc(C(F)(F)F)cc3)CC2)O1 [RS102895, reference compound] | – | inhibition of CCR2 calcium response (at 2 μM): full inhibition; Ki (reference antagonist, read-out: fKi): 84 nM |
| Oc1c(Cc2ccccc2)c(C2CC2)nc2ccnn12 [Example 18, 6-Benzyl-5-cyclopropylpyrazolo[1,5-a]-pyrimidin-7-ol] | < 10 | – |
| Cc1nc2ccnn2c(O)c1Cc1ccc(F)c(C#N)c1 [Example 8, 2-Fluoro-5-({7-hydroxy-5-methylpyrazolo-(1,5-a]pyrimidin-6-yl}methyl)benzonitrile] | 100 to 1000 | – |
| COc1cccc(Cc2c(C)nc3ccnn3c2O)c1 [Example 10, 6-[(3-Methoxyphenyl)methyl]-5-methyl-pyrazolo[1,5-a]pyrimidin-7-ol] | 100 to 1000 | – |
| Oc1c(Cc2ccc(F)c(F)c2)c(C2CCC2)nc2ccnn12 [Example 45, 5-Cyclobutyl-6-[(3,4-difluorophenyl)-methyl]pyrazolo[1,5-a]pyrimidin-7-ol] | < 10 | – |
| Cc1nc2c(C#N)cnn2c(O)c1Cc1ccc(Cl)cc1 [Example 59, 6-[(4-Chlorophenyl)methyl]-7-hydroxy-5-methylpyrazolo[1,5-a]pyrimidine-3-carbonitrile] | 100 to 1000 | – |
| COCCc1nc2ccnn2c(O)c1Cc1ccc(Cl)cc1 [Example 54, 6-[(4-Chlorophenyl)methyl]-5-(2-methoxyethyl)pyrazolo[1,5-a]pyrimidin-7-ol] | 10 to 100 | – |
| CC(C)c1nc2ccnn2c(O)c1Cc1ccc(Cl)c(F)c1 [Example 38, 6-[(4-Chloro-3-fluorophenyl)methyl]-5-(propan-2-yl)pyrazolo[1,5-a]pyrimidin-7-ol] | < 10 | – |
